pIC50: −log10 of the molar value.
Test system: 485176-168-R4-J1-PDC spheroids with HUVEC/MSC, viability
Experiment: Anticancer human tumor 485176-168-R4-J1-PDC patient-derived pancreatic adenocarcinoma cell line growth inhibition [GQUAD]
Conditions: for pIC50: curve of first compound; for viability, T/C: stronger effect = lower value
Procedure, shortened: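 Multi-cell-type spheroids of tumor cells with HUVEC and mesenchymal stem cells, treated with drug combinations. Concentrations descend in half-log steps from near clinical Cmax, or from 10 microM where Cmax is unknown; viability read-out.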
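Further: spheroids exposed to compounds for seven days before readout.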
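Wherever viability, T/C is given: percent viability relative to DMSO vehicle control wells as 100%.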

COc1ccc([C@@H](O)c2cc(-c3ncnc4cc(N5CCOCC5)ccc34)c(F)cc2Cl)nn1 + Cc1cnc(CNC(=O)c2c(=O)c3ccc(N4CCCN(C)CC4)nc3n3c2sc2ccccc23)cn1
pIC50 (second compound 0.0316 µM): 5.96 | pIC50 (second compound 0.1 µM): 6.31 | pIC50 (second compound 0.316 µM): 6.49 | pIC50 (second compound 1 µM): 7.30 | pIC50 (second compound 3.16 µM): > 7.50 | pIC50 (second compound 10 µM): > 7.50 | viability, T/C (second compound 0.0316 µM, first compound 0.0316 µM): 94.3% | viability, T/C (second compound 0.0316 µM, first compound 0.1 µM): 91.4% | viability, T/C (second compound 0.0316 µM, first compound 0.316 µM): 84.5% | viability, T/C (second compound 0.0316 µM, first compound 1 µM): 48.5% | viability, T/C (second compound 0.0316 µM, first compound 3.16 µM): 39.1% | viability, T/C (second compound 0.0316 µM, first compound 10 µM): 24.4% | viability, T/C (second compound 0.1 µM, first compound 0.0316 µM): 61.6% | viability, T/C (second compound 0.1 µM, first compound 0.1 µM): 67.9% | viability, T/C (second compound 0.1 µM, first compound 0.316 µM): 45.4% | viability, T/C (second compound 0.1 µM, first compound 1 µM): 47.9% | viability, T/C (second compound 0.1 µM, first compound 3.16 µM): 31.5% | viability, T/C (second compound 0.1 µM, first compound 10 µM): 18.7% | viability, T/C (second compound 0.316 µM, first compound 0.0316 µM): 58.9% | viability, T/C (second compound 0.316 µM, first compound 0.1 µM): 64.7% | viability, T/C (second compound 0.316 µM, first compound 0.316 µM): 46.9% | viability, T/C (second compound 0.316 µM, first compound 1 µM): 36.9% | viability, T/C (second compound 0.316 µM, first compound 3.16 µM): 29.5% | viability, T/C (second compound 0.316 µM, first compound 10 µM): 16.1% | viability, T/C (second compound 1 µM, first compound 0.0316 µM): 49.7% | viability, T/C (second compound 1 µM, first compound 0.1 µM): 54.6% | viability, T/C (second compound 1 µM, first compound 0.316 µM): 37.2% | viability, T/C (second compound 1 µM, first compound 1 µM): 45.5% | viability, T/C (second compound 1 µM, first compound 3.16 µM): 30.1% | viability, T/C (second compound 1 µM, first compound 10 µM): 14.2% | viability, T/C (second compound 3.16 µM, first compound 0.0316 µM): 46% | viability, T/C (second compound 3.16 µM, first compound 0.1 µM): 43.7% | viability, T/C (second compound 3.16 µM, first compound 0.316 µM): 36.6% | viability, T/C (second compound 3.16 µM, first compound 1 µM): 36% | viability, T/C (second compound 3.16 µM, first compound 3.16 µM): 31.9% | viability, T/C (second compound 3.16 µM, first compound 10 µM): 14.2% | viability, T/C (second compound 10 µM, first compound 0.0316 µM): 33.7% | viability, T/C (second compound 10 µM, first compound 0.1 µM): 39.7% | viability, T/C (second compound 10 µM, first compound 0.316 µM): 36.5% | viability, T/C (second compound 10 µM, first compound 1 µM): 29.1% | viability, T/C (second compound 10 µM, first compound 3.16 µM): 28.8% | viability, T/C (second compound 10 µM, first compound 10 µM): 14.9%

Reference: PubChem BioAssay AID2060509 (Molecular Pharmacology Branch, DTP, NCI, 2025)
